{
  "source": "patent US7273848B2",
  "about": "“Apolipoprotein A-I agonists and their use to treat dyslipidemic disorders” (priority 1997, dated 2007)",
  "note": "Non-standard residues stand in square brackets, D forms with d. Residues, ends and D or L forms follow the SMILES beside them. No end group written: not given here. Aib = CC(C)(N)C(=O)O",
  "data": [
    {"molecular_target": "T1, LCAT (purified from human plasma) (Homo sapiens, UniProt P04180)", "T1 construct": "from tissue; host or cells: human plasma", "T1 sequence (P04180 25-440)": "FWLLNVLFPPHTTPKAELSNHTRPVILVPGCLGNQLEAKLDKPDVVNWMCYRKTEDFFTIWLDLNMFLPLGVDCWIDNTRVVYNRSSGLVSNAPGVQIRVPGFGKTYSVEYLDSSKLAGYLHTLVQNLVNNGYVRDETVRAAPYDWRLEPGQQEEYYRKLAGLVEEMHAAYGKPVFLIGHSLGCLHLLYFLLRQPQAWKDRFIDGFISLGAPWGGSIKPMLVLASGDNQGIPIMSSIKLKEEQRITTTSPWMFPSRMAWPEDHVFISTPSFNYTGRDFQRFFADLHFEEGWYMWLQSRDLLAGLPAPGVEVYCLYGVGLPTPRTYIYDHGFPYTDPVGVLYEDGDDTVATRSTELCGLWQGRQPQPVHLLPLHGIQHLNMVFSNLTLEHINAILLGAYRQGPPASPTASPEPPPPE", "assay": "LCAT activation assay", "format": "biochemical", "details": "LCAT activation as compared with native human ApoA-I (= 100%), equivalent masses", "outline": "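Substrate SUVs of EPC or POPC with 14C-cholesterol (20:1 molar ratio), in 10 mM Tris, 0.14 M NaCl, 1 mM EDTA, pH 7.4, were preincubated with peptide or equal mass of plasma ApoA-I. Reaction started with human plasma LCAT; activation was measured as cholesterol-to-ester conversion relative to ApoA-I (100%).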", "units": {"ACTIVITY (%) LCAT": "%"}, "values": [
      {"molecule": "CC(C)C[C@H](NC(=O)[C@H](C)NC(=O)[C@H](CCC(=O)O)NC(=O)[C@H](CC(C)C)NC(=O)C(C)(C)NC(=O)[C@H](CCC(=O)O)NC(=O)[C@H](CC(N)=O)NC(=O)[C@H](Cc1ccc(O)cc1)NC(=O)[C@H](CC(C)C)NC(=O)[C@H](CCC(=O)O)NC(=O)[C@H](CCCNC(=N)N)NC(=O)[C@H](Cc1ccccc1)NC(=O)[C@H](CCC(=O)O)NC(=O)[C@H](CC(=O)O)NC(=O)[C@H](CC(C)C)NC(=O)[C@@H](NC(=O)[C@@H]1CCCN1)C(C)C)C(=O)N[C@@H](CCCCN)C(=O)N[C@@H](CCC(N)=O)C(=O)N[C@@H](CCCCN)C(=O)N[C@@H](CC(C)C)C(=O)N[C@@H](CCCCN)C(=O)O", "note": "[compound 92, PVLDEFRELYNEXLEALKQKLK] (H-PVLDEFRELYNE[Aib]LEALKQKLK-OH)", "ACTIVITY (%) LCAT": 5},
      {"molecule": "CC(=O)N1CCC[C@@H]1C(=O)N[C@H](C(=O)N[C@@H](CC(C)C)C(=O)N[C@@H](CC(=O)O)C(=O)N[C@@H](CC(C)C)C(=O)N[C@@H](Cc1ccccc1)C(=O)N[C@@H](CCCNC(=N)N)C(=O)N[C@@H](CCC(=O)O)C(=O)N[C@@H](CC(C)C)C(=O)N[C@@H](CC(C)C)C(=O)N[C@@H](CCC(=O)O)C(=O)N[C@@H](CCC(=O)O)C(=O)N[C@@H](CC(C)C)C(=O)N[C@@H](CCCCN)C(=O)N[C@@H](CCC(N)=O)C(=O)N[C@@H](CCCCN)C(=O)N[C@@H](CC(C)C)C(=O)N[C@@H](CCCCN)C(N)=O)C(C)C", "note": "[compound 214] (Ac-[dP]VLDLFRELLEELKQKLK-NH2)", "ACTIVITY (%) LCAT": 39},
      {"molecule": "PVLELFENGLERLLDALQKKLK [compound 167]", "ACTIVITY (%) LCAT": 18},
      {"molecule": "Ac-PALELFKDLLEELRQKLR-NH2 [compound 202]", "ACTIVITY (%) LCAT": 70},
      {"molecule": "PVLELFENLLEKLLEALQKKLK [compound 182]", "ACTIVITY (%) LCAT": 7},
      {"molecule": "PVLDLLRELLNELLEALKQKLK [compound 16]", "ACTIVITY (%) LCAT": 59},
      {"molecule": "Ac-AVLDLFRELLEELKQKLK-NH2 [compound 203]", "ACTIVITY (%) LCAT": 66},
      {"molecule": "Ac-PVLDLFRELLEELKNKLK-NH2 [compound 196]", "ACTIVITY (%) LCAT": 81},
      {"molecule": "PVLELFENLLERLLELLNKKLK [compound 175]", "ACTIVITY (%) LCAT": 13},
      {"molecule": "CC(C)C[C@H](NC(=O)[C@H](C)NC(=O)[C@H](CCC(=O)O)NC(=O)[C@H](CC(C)C)NC(=O)C(C)(C)NC(=O)[C@H](CCC(=O)O)NC(=O)[C@H](CC(N)=O)NC(=O)[C@H](CC(C)C)NC(=O)[C@H](CCCCN)NC(=O)[C@H](CCCCN)NC(=O)[C@H](CCCNC(=N)N)NC(=O)[C@H](Cc1ccccc1)NC(=O)[C@H](CCC(=O)O)NC(=O)[C@H](CC(=O)O)NC(=O)[C@H](CC(C)C)NC(=O)[C@@H](NC(=O)[C@@H]1CCCN1)C(C)C)C(=O)N[C@@H](CCCCN)C(=O)N[C@@H](CCC(N)=O)C(=O)N[C@@H](CCCCN)C(=O)N[C@@H](CC(C)C)C(=O)N[C@@H](CCCCN)C(=O)O", "note": "[compound 69, PVLDEFRKKLNEXLEALKQKLK] (H-PVLDEFRKKLNE[Aib]LEALKQKLK-OH)", "ACTIVITY (%) LCAT": 13},
      {"molecule": "PVLDLFRELLNELLEALQKKLK [peptide 24]", "ACTIVITY (%) LCAT": 53},
      {"molecule": "CC(C)C[C@H](NC(=O)[C@H](CCCCN)NC(=O)[C@H](CCC(N)=O)NC(=O)[C@H](CCCCN)NC(=O)[C@H](CC(C)C)NC(=O)[C@H](C)NC(=O)[C@H](CCC(=O)O)NC(=O)[C@H](CC(C)C)NC(=O)C(C)(C)NC(=O)[C@H](CCC(=O)O)NC(=O)[C@H](CC(N)=O)NC(=O)[C@H](CC(C)C)NC(=O)[C@H](CCCCN)NC(=O)[C@H](CCC(=O)O)NC(=O)[C@H](CCCNC(=N)N)NC(=O)[C@H](Cc1ccccc1)NC(=O)[C@H](CCC(=O)O)NC(=O)[C@H](CC(=O)O)NC(=O)[C@H](CC(C)C)NC(=O)[C@@H](NC(=O)[C@@H]1CCCN1)C(C)C)C(=O)O", "note": "[compound 58, PVLDEFREKLNEXLEALKQKL~] (H-PVLDEFREKLNE[Aib]LEALKQKL-OH)", "ACTIVITY (%) LCAT": 18},
      {"molecule": "VVLDLFRELLNELLEALKQKLK [compound 53]", "ACTIVITY (%) LCAT": 19},
      {"molecule": "CC(C)C[C@H](NC(=O)[C@H](C)NC(=O)[C@H](CCC(=O)O)NC(=O)[C@H](CC(C)C)NC(=O)C(C)(C)NC(=O)[C@H](CCC(=O)O)NC(=O)[C@H](CC(N)=O)NC(=O)[C@H](CC(C)C)NC(=O)[C@H](CCCCN)NC(=O)[C@H](CCC(=O)O)NC(=O)[C@H](CCCNC(=N)N)NC(=O)[C@H](Cc1ccccc1)NC(=O)[C@H](Cc1ccccc1)NC(=O)[C@H](CC(=O)O)NC(=O)[C@H](CC(C)C)NC(=O)[C@@H](NC(=O)[C@@H]1CCCN1)C(C)C)C(=O)N[C@@H](CCCCN)C(=O)N[C@@H](CCC(N)=O)C(=O)N[C@@H](CCCCN)C(=O)N[C@@H](CC(C)C)C(=O)N[C@@H](CCCCN)C(=O)O", "note": "[compound 63, PVLDFFREKLNEXLEALKQKLK] (H-PVLDFFREKLNE[Aib]LEALKQKLK-OH)", "ACTIVITY (%) LCAT": 16},
      {"molecule": "PVLELFLNLLERLLDALQKKLK [compound 156]", "ACTIVITY (%) LCAT": 35},
      {"molecule": "GVLDLFRELLNELLEALKQKLK [peptide 18]", "ACTIVITY (%) LCAT": 58},
      {"molecule": "CC(C)C[C@H](NC(=O)[C@H](C)NC(=O)[C@H](Cc1c[nH]c2ccccc12)NC(=O)[C@H](CC(C)C)NC(=O)C(C)(C)NC(=O)[C@H](CCC(=O)O)NC(=O)[C@H](CC(N)=O)NC(=O)[C@H](CC(C)C)NC(=O)[C@H](CC(C)C)NC(=O)[C@H](CCC(=O)O)NC(=O)[C@H](CCCNC(=N)N)NC(=O)[C@H](Cc1ccccc1)NC(=O)[C@H](CC(C)C)NC(=O)[C@H](CC(=O)O)NC(=O)[C@H](CC(C)C)NC(=O)[C@@H](NC(=O)[C@@H]1CCCN1)C(C)C)C(=O)N[C@@H](CCCCN)C(=O)N[C@@H](CCC(N)=O)C(=O)N[C@@H](CCCCN)C(=O)N[C@@H](CC(C)C)C(=O)N[C@@H](CCCCN)C(=O)O", "note": "[compound 72, PVLDLFRELLNEXLWALKQKLK] (H-PVLDLFRELLNE[Aib]LWALKQKLK-OH)", "ACTIVITY (%) LCAT": 11},
      {"molecule": "CC(C)C[C@H](NC(=O)[C@H](CCCCN)NC(=O)[C@H](CCC(N)=O)NC(=O)[C@H](CCCCN)NC(=O)[C@H](CC(C)C)NC(=O)C(C)(C)NC(=O)[C@H](CCC(=O)O)NC(=O)[C@H](CC(C)C)NC(=O)[C@H](CCC(=O)O)NC(=O)[C@H](CCC(=O)O)NC(=O)[C@H](CC(N)=O)NC(=O)[C@H](CC(C)C)NC(=O)[C@H](CCCCN)NC(=O)[C@H](CCC(=O)O)NC(=O)[C@H](CCCNC(=N)N)NC(=O)[C@H](Cc1ccccc1)NC(=O)[C@H](CCC(=O)O)NC(=O)[C@H](CC(=O)O)NC(=O)[C@H](CC(C)C)NC(=O)[C@@H](NC(=O)[C@@H]1CCCN1)C(C)C)C(=O)N[C@@H](CCCCN)C(=O)O", "note": "[compound 120, PVLDEFREKLNEELEXLKQKLK] (H-PVLDEFREKLNEELE[Aib]LKQKLK-OH)", "ACTIVITY (%) LCAT": 0},
      {"molecule": "PVLELFLNLLERLLDAWQKKLK [compound 184]", "ACTIVITY (%) LCAT": 4},
      {"molecule": "PVLELFLNLLERLGDALQKKLK [compound 172]", "ACTIVITY (%) LCAT": 16},
      {"molecule": "CC(C)C[C@H](NC(=O)[C@H](C)NC(=O)[C@H](CCC(=O)O)NC(=O)[C@H](CC(C)C)NC(=O)C(C)(C)NC(=O)[C@H](CCC(=O)O)NC(=O)[C@H](CC(N)=O)NC(=O)[C@H](CC(C)C)NC(=O)[C@H](CCCCN)NC(=O)[C@H](CCC(=O)O)NC(=O)[C@H](CCCNC(=N)N)NC(=O)[C@H](Cc1ccccc1)NC(=O)[C@H](CCC(=O)O)NC(=O)[C@H](CC(=O)O)NC(=O)[C@H](CC(C)C)NC(=O)[C@H](Cc1c[nH]cn1)NC(=O)[C@@H]1CCCN1)C(=O)N[C@@H](CCCCN)C(=O)N[C@@H](CCC(N)=O)C(=O)N[C@@H](CCCCN)C(=O)N[C@@H](CC(C)C)C(=O)N[C@@H](CCCCN)C(=O)O", "note": "[compound 116, PHLDEFREKLNEXLEALKQKLK] (H-PHLDEFREKLNE[Aib]LEALKQKLK-OH)", "ACTIVITY (%) LCAT": 0},
      {"molecule": "CC(C)C[C@H](NC(=O)[C@H](C)NC(=O)[C@H](CCC(=O)O)NC(=O)[C@H](CC(C)C)NC(=O)[C@H](CC(C)C)NC(=O)[C@H](CCC(=O)O)NC(=O)[C@H](CC(N)=O)NC(=O)[C@H](CC(C)C)NC(=O)[C@H](CC(C)C)NC(=O)[C@H](CCC(=O)O)NC(=O)[C@H](CCCNC(=N)N)NC(=O)[C@H](Cc1ccccc1)NC(=O)[C@H](CC(C)C)NC(=O)[C@H](CC(=O)O)NC(=O)[C@H](CC(C)C)NC(=O)[C@@H](NC(=O)C(C)(C)N)C(C)C)C(=O)N[C@@H](CCCCN)C(=O)N[C@@H](CCC(N)=O)C(=O)N[C@@H](CCCCN)C(=O)N[C@@H](CC(C)C)C(=O)N[C@@H](CCCCN)C(=O)O", "note": "[compound 32, XVLDLFRELLNELLEALKQKLK] (H-[Aib]VLDLFRELLNELLEALKQKLK-OH)", "ACTIVITY (%) LCAT": 33},
      {"molecule": "PVLDLFREGWEELKQKLK [compound 224]", "ACTIVITY (%) LCAT": 8},
      {"molecule": "CC(C)C[C@H](NC(=O)[C@H](C)NC(=O)[C@H](CCC(=O)O)NC(=O)[C@H](CC(C)C)NC(=O)C(C)(C)NC(=O)[C@H](CCC(=O)O)NC(=O)[C@H](CC(N)=O)NC(=O)[C@H](CC(C)C)NC(=O)[C@H](CCCCN)NC(=O)[C@H](CCC(=O)O)NC(=O)[C@H](CCCNC(=N)N)NC(=O)[C@H](Cc1ccccc1)NC(=O)[C@H](CCC(=O)O)NC(=O)[C@@H](N)CC(=O)O)C(=O)N[C@@H](CCCCN)C(=O)N[C@@H](CCC(N)=O)C(=O)N[C@@H](CCCCN)C(=O)N[C@@H](CC(C)C)C(=O)N[C@@H](CCCCN)C(=O)O", "note": "[compound 90, ~~~DEFREKLNEXLEALKQKLK] (H-DEFREKLNE[Aib]LEALKQKLK-OH)", "ACTIVITY (%) LCAT": 6}
    ]}
  ]
}
